From US20090305994A1, “Compounds Modulating Vegf Receptor and Uses Thereof” (priority 2005, published 2009)

Test system: HUVEC
Assay: Analysis of caspase 3 activity in HUVEC deprived of FBS
Assay type: cell-based, human
Details: 4 h
Procedure: HUVE cells (1×10^4/cm2) were incubated in medium without FBS, in the absence or presence of VEGF (20 ng/ml) and QK (5 ng/ml), at 37° C. in a 5% CO2 atmosphere. After 4 h, caspase 3 activity was determined. Results are expressed as mean values of triplicates.
HUVE cells (1×10^4/cm2) were incubated in medium without FBS, in the absence or presence of VEGF (20 ng/ml) and the indicated peptides (20 ng/ml), at 37° C. in a 5% CO2 atmosphere. After 4 h, caspase 3 activity was determined. Results are expressed as mean values of triplicates.
(§1) Analysis of caspase 3 activity—Cells (2×104) were lysed in a buffer containing Hepes 50 mM, DTT 1 mM, EDTA 0.1 mM, NP-40 0.1%, CHAPS 0.1% and protein quantitation determined. Protein aliquots (20 μg) were incubated with 20 μM Ac-DEVD-AMC (Pharmingen, San Diego, Calif.) in a buffer containing Hepes 50 mM, DTT 1 mM, EDTA 0.1 mM, NP-40 0.1%, CHAPS 0.1%, at 37° C. for 3 h. Caspase 3 activity was determined in the cytosolic extracts by analysing the release of 7-amino-4-methylcoumarin (AMC) from N-acetyl-DEVD-AMC (Thornberry N A, et al. Nature 1992; 356:768-74); the release of AMC was monitored in a spectrofluorometer with an excitation wavelength of 380 nm and emission wavelength of 440 nm.
as §1, with “356: 768-74);” for “356:768-74);”

Question: KLTWQELYQLKYKGI [QK] was tested. Which “rescue from apoptosis in presence of VEGF (caspase 3)” value (QK 5 ng/ml with VEGF 20 ng/ml) did it give?
Answer: enhanced the response of HUVEC to VEGF

Question: What about the “rescue of HUVEC from apoptosis (caspase 3 activation)” value (VEGF 20 ng/ml, QK 5 ng/ml) of the same sequence?
Answer: showed a biological effect similar to VEGF
